# Patent US8518995B2, “Methods and compositions for the treatment of irritable bowel syndrome” (MediciNova, Inc., priority 2010, dated 2013)
# Assays:
# [1] = system: subjects with the irritable bowel syndrome (IBS); assay: Effects of MN-221 on rectosigmoid motility (intraluminal pressure, systemic effects, plasma levels) in IBS subjects; type: in vivo, human
# Source text: In this study, subjects with the irritable bowel syndrome (IBS) are studied with regard to the effects of MN-221 on rectosigmoid motility.
# Men and women aged 24-52 years are included in the study. The diagnosis of IBS is made on the basis of the following criteria: 1) symptoms lasting more than few months; 2) abdominal pain with or without relation to meals; 3) constipation or a combination of diarrhea and constipation; 4) normal colonic barium enema and sigmoidoscopy; 5) negative test for lactose intolerance; and 6) negative finding on stool culture.
# The subjects are all symptomatic at the time of the study. The subjects are taking no medications of significant importance for intestinal motility. Informed consent is obtained from each subject.
# After a 12 hours fast, all subjects undergo sigmoidoscopy without air insufflations. A probe with one to three polyethylene catheters is inserted through the sigmoidoscope so that the proximal catheter is about 18-20 centimeter (cm) from the anal margin, the tip of the second catheter about 5 cm below, and the third catheter is positioned just inside the internal sphincter. An about 5-cm-long balloon surrounds each of the two distal catheters. The distal balloon is inflated with about 20 milliliter (mL) of air to prevent the device from moving in the distal direction. The balloon in the upper rectum, connected to the middle catheter, is kept inflated with about 80 ml of air in 10 of the subjects and with about 60 mL in the other 2 subjects throughout the recording sessions. Each subject has the same balloon volume during the three examinations.
# Intra-luminal pressure is measured from the proximal rectal balloon and the sigmoid catheter (inside diameter, about 1.67 millimeter (mm)), which is open tipped with a side orifice of about 1.5 mm diameter.
# The catheter is continuously perfused with body-temperature water at 3.5 mL/h by means of an infusion pump. Pressure is transmitted to transducers (e.g., Statham P 23 Db, Statham Instruments, Hato Ray, Puerto Rico) and recorded on a Grass RPS 7C polygraph (e.g., Grass Instrument Co., Quincy, Mass.). To determine motility, the area under the pressure curves is continuously determined by integrators (such as, e.g., Grass 7P 10). As an index of contractile activity, the total area minus the area under an estimated basal pressure line is used. The principle for motility calculation is described in detail in Abrahamsson et al. Dig Dis Sci 1983, 28, 590-594.
# Motility index is expressed as kPa×min (1 kPa×min=7.5 mm Hg×min). The study is randomized and double blinded. Each subject is investigated on 3 different days with not less than 5 days between each investigation to avoid any possible influence of an earlier drug infusion. After an initial rest period of 30 minutes (min), pressure is quantified for three periods of 25 min. The first period, designated the control period, is preceded by saline infusion, 1 mL/min, for 5 min. The following two test periods are each preceded by an infusion of 0.25 mg MN-221 intravenously to a total amount of 0.50 mg on the 1st day, 1.0 mg on the 2nd day, and 5 ml placebo (plus 5 mL saline) on the 3rd day.
# The blood pressure and heart rate are measured by a sphygmomanometer 10 and 25 min after the end of each drug infusion. […]
# Results are expressed as the mean±SEM. […]
# The plasma concentration of MN-221 is determined by liquid chromatography and mass spectrometry.
# [2] = system: subjects suffering from IBS; assay: Effects of MN-221 on human esophageal peristalsis (manometry, heart rate, finger tremor) in IBS subjects; type: in vivo
# Source text: This study investigates the inhibitory influence of beta-2-adrenergic stimulation by MN-221 on esophageal motility with little to no incidence of significant adverse side effects. In the study, esophageal peristalsis is studied in subjects suffering from IBS. The subjects have no history of gastrointestinal or cardiovascular disease. Subjects are considered to have the irritable bowel syndrome if they have an abdominal pain with or without diarrhea or constipation. Relief of pain by defecation, abdominal distension, a feeling of incomplete evacuation, and/or a response to a high-residue diet are taken as useful additional symptoms. The blood picture, erythrocyte sedimentation rate, and results of sigmoidoscopy, rectal biopsy, and barium enema are normal in all subjects. The symptoms of the subjects, including dysphagia and heartburn, are recorded on data sheets for correlation with manometric findings.
# Each subject is orally given MN-221, 5 mg three times daily, for 10 days. […] At each session esophageal peristaltic pressure, heart rate, and finger tremor are assessed.
# Manometric studies are performed with a triple-lumen tube with each channel perfused with water, 0.5 ml/min, via a low-compliance capillary system. […] Thus, pressure is recorded about 18 cm proximal to the LES (proximal esophagus), about 10 cm proximal to the LES (middle esophagus), and about 2 cm proximal to the LES (distal esophagus).
# After a resting period of 20 min., esophageal peristalsis in response to 20 wet swallows (water bolus of 5 ml, room temperature) is recorded. […] Each recording curve is coded and read by one investigator who is not aware of the subject's study day. The amplitude of the peristaltic pressure waves is measured at each recording point, and an individual mean value for the 20 swallows is calculated for each examination.
# At each session, heart rate is recorded in the resting subject and calculated as a mean value for 2 min. Finger tremor are assessed with an optical method (e.g., Opto-Tremor Graph, Draco), and the middle finger of the right hand is chosen for measurement. […]
# [3] = system: subjects suffering from IBS; details: including increase in the heart rate and finger tremors; cited from earlier work
# [4] = system: subjects with the irritable bowel syndrome (IBS); details: including increase in systolic blood pressure and the heart rate; cited from earlier work
# [5] = during oral medication, 5 mg three times daily, 10 days
SMILES,complaints or discomfort among the subjects ([1]; after infusion of MN-221),"plasma concentrations ([1]; after intravenous infusion, 0.50 and 1.0 mg total)",systolic and diastolic blood pressure and heart rate ([1]; infusion to a total of 0.50 mg intravenously),systolic and diastolic blood pressure and heart rate ([1]; infusion to a total of 1.0 mg intravenously),"adverse side effects ([1]; intravenous infusion, IBS subjects)","finger tremor [2, 5]","heart rate [2, 5]","adverse side effects ([2]; oral medication, IBS subjects)",adverse side effects (comparison drug) [3],adverse side effects (comparison drug) [4]
"CN(C)C(=O)COc1ccc2c(c1)CC(NCC(O)c1ccc(O)c(CCO)c1)CC2 (single isomer, unassigned; (-)) [MN-221]",No major complaints or discomfort,within the therapeutic levels,no significant increase in the systolic blood pressure; decrease in the diastolic blood pressure; and/or increase in the heart rate,no significant increase in systolic blood pressure; decrease in diastolic blood pressure; and/or increase in heart rate,little to no adverse side effects,do not change,do not change,little to no adverse side effects,–,–
CC(C)(C)NCC(O)c1cc(O)cc(O)c1 (stereo not shown) [terbutaline],–,–,–,–,–,–,–,–,undesirable incidence of significant adverse side effects,undesirable incidence of significant adverse side effects
